B1: Anti mullerian hormone: TGF-beta activator (protein, UniProt P03971 452-560, looked up)
Muellerian-inhibiting factor: SAGATAADGPCALRELSVDLRAERSVLIPETYQANNCQGVCGWPQSDRNPRYGNHVVLLLKMQVRGAALARPPCCVPTAYAGKLLISLSEERISAHHVPNMVATECGCR
B2: Wnt3a: FRIZZLED activator (protein, UniProt P56704 19-352, looked up)
Protein Wnt-3a: SYPIWWSLAVGPQYSSLGSQPILCASIPGLVPKQLRFCRNYVEIMPSVAEGIKIGIQECQHQFRGRRWNCTTVHDSLAIFGPVLDKATRESAFVHAIASAGVAFAVTRSCAEGTAAICGCSSRHQGSPGKGWKWGGCSEDIEFGGMVSREFADARENRPDARSAMNRHNNEAGRQAIASHMHLKCKCHGLSGSCEVKTCWWSQPDFRAIGDFLKDKYDSASEMVVEKHRESRGWVETLRPRYTYFKVPTERDLVYYEASPNFCEPNPETGSFGTRDRTCNVSSHGIDGCDLLCCGRGHNARAERRREKCRCVFHWCCYVSCQECTRVYDVHTCK

Tests used:
UGT1A1 = assay: RNA-seq of UGT1A1 expression in compound-treated primary human hepatocytes; assay type: cell-based
Method: (§1) Human hepatocytes were obtained from two donors from Massachusetts General Hospital, namely MGH54 and MGH63, and one donor from Lonza, namely HUM4111B. Cryopreserved hepatocytes were cultured in plating media for 16 hours, transferred to maintenance media for 4 hours. Cultured on serum-free media for 2 hours, then a compound was added. The hepatocytes were maintained on the serum-free media for 16 hours prior to gene expression analysis. Primary human hepatocytes were stored in the vapor phase of a liquid nitrogen freezer (about −130° C.).
(§2) Human hepatocytes cultured as described above were plated in 24-well format, adding 375,000 cells per well in a volume of 500 ul plating medium. Four hours before treatment, cells were washed with PBS and the medium was changed to either: fresh maintenance medium (complete) or modified maintenance medium.
(§3) Compound stocks were prepared at 1000× final concentration and added in a 2-step dilution to the medium to reduce risk of a compound precipitating out of solution when added to the cells, and to ensure reasonable pipetting volumes. One at a time, each compound was first diluted 10-fold in warm (about 37° C.) modified maintenance medium (initial dilution=ID), mixed by vortexing, and the ID was diluted 100-fold into the cell culture (e.g. 5.1 ul into 1 well of a 24-well plate containing 0.5 mL medium). The plate was mixed by carefully swirling and after all wells were treated and returned to the incubator overnight. If desired, separate plates/wells were treated with vehicle-only controls and/or positive controls. If using multi-well plates, controls were included on each plate. After about 18 hours, cells were harvested for further analysis, e.g., ChIP-seq, RNA-seq, ATAC-seq, etc.
(§4) This protocol is a modified version of the following protocols: MagMAX mirVana Total RNA Isolation Kit User Guide (Applied Biosystems #MAN0011131 Rev B.0), NEBNext Poly(A) mRNA Magnetic Isolation Module (E7490), and NEBNext Ultra Directional RNA Library Prep Kit for Illumina (E7420) (New England Biosystems #E74901).
(§5) The MagMAX mirVana kit instructions (the section titled “Isolate RNA from cells” on pages 14-17) were used for isolation of total RNA from cells in culture. Two hundred μl of Lysis Binding Mix was used per well of the multiwell plate containing adherent cells (usually a 24-well plate).
(§6) For mRNA isolation and library prep, the NEBNext Poly(A) mRNA Magnetic Isolation Module and Directional Prep kit was used. RNA isolated from cells above was quantified, and prepared in […] of each sample in 50 μl of nuclease-free water. This protocol may be run in microfuge tubes or in a 96-well plate.
Standard QC were applied (read integrity, mapping statistics, library complexity, fragment bias) to remove unsatisfactory samples. […] Log 2 fold change and significance values were computed using PME count data (with replicates explicitly modeled versus pan-experiment controls), median ratio normalized, using maximum likelihood estimation rather than maximum a posteriori, and disabling the use of Cook's distance cutoff when determining acceptable adjusted p-values. […] RNA-seq signals were also normalized by read depth and visualized using the UCSC browser.
To identify small molecules that modulate target gene expression, primary human hepatocytes were prepared as a monoculture, and at least one small molecule compound was applied to the cells.
RNA-seq was performed to determine the effects of the compounds on the expression of the target genes in hepatocytes. Fold change was calculated by dividing the level of expression in the cell system that had been perturbed by the level of expression in an unperturbed system. Changes in expression having a p-value ≤0.05 were considered significant.
Significance was defined as an FPKM ≥1, a log 2(fold change) ≥0.5, and a q-value of ≤0.05 for all targets except for CPOX.

ANGPTL3 = assay: RNA-seq of ANGPTL3 expression in compound-treated primary human hepatocytes; assay type: cell-based; settings: additional compounds (Table 13), linear fold change
Method: as §1, §2, §3, §4, §5, §6
All pass filter reads from each sample were mapped against the human genome (assembly GRCh38/GCA_000001405.15 “no alt” analysis set merged with hs38d1/GCA_000786075.2) using two pass mapping via STAR version 2.5.3a (alignment parameters alignIntronMin=20; alignIntronMax=1000000; outFilterMismatchNmax=999; outFilterMismatchNoverLmax=0.05; outFilterType=BySJout; outFilterMultimapNmax=20; alignSJoverhangMin=8; alignSJDBoverhangMin=1; alignMatesGapMax=1000000) (Dobin et al., Bioinformatics (2012) 29(1):15-21). Genomic alignments were converted to transcriptome alignments based on reference transcript annotations from the Human GENCODE Gene Set release 24 (Harrow et al., Genome Res. (2012) 22(9): 1760-1774). Using unique and multimapped transcriptomic alignments, gene-level abundance estimates were computed using RSEM version 1.3.0 (Li and Dewey, BMC Bioinformatics (2011) 12:323) in a strand-aware manner, and including confidence interval sampling calculations, to arrive at posterior mean estimates (PME) of abundances (counts and normalized FPKM—fragments per kilobase of exon per million mapped fragments) from the underlying Bayesian model. Standard QC were applied (read integrity, mapping statistics, library complexity, fragment bias) to remove unsatisfactory samples.

Molecule	UGT1A1 Fold Change (Log2) (UGT1A1)	ANGPTL3-LINEAR FOLD CHANGE (ANGPTL3)
CNC(=O)c1ccc(N2C(=S)N(c3cnc(C#N)c(C(F)(F)F)c3)C(=O)C23CCC3)cc1F [ARN-509]	1.16	–
Cc1cc(Nc2nc(N[C@@H](C)c3ncc(F)cn3)ncc2Cl)[nH]n1 [AZD1480]	0.93	–
C[C@@H]1COCCN1c1cc(C2([S@](C)(=N)=O)CC2)nc(-c2cc[nH]c3nccc2-3)n1 [AZD6738]	1.03	–
O=C1Nc2cc(Br)ccc2/C1=C1/Nc2ccccc2/C1=N\O [BIO]	0.62	–
Cc1ccc(-n2nc(C(C)(C)C)cc2NC(=O)Nc2ccc(OCCN3CCOCC3)c3ccccc23)cc1 [BIRB 796]	1.04	–
C[C@@]1(C(=O)Nc2ccc(F)nc2)CCCN1c1nc(Nc2cc(C3CC3)n[nH]2)c2cccn2n1 [BMS-754807]	1.33	–
C=C(c1ccc(C(=O)O)cc1)c1cc2c(cc1C)C(C)(C)CCC2(C)C [Bexarotene]	1.29	–
C[C@H]1COC2=C1C(=O)C(=O)c1c2ccc2c1CCCC2(C)C [Cryptotanshinone]	0.93	–
Cc1nc(Nc2ncc(C(=O)Nc3c(C)cccc3Cl)s2)cc(N2CCN(CCO)CC2)n1 [Dasatinib]	0.67	–
CC[C@@](C)(Nc1ccnc(-c2c[nH]c3ncccc23)n1)C(=O)NCC(F)(F)F [Decernotinib]	0.58	–
c1cc(-c2cnn3cc(-c4ccc(OCCN5CCCCC5)cc4)cnc23)ccn1 [Dorsomorphin]	0.57	–
C=C1/C(=C\C=C2/CCC[C@]3(C)[C@@H]([C@H](C)/C=C/C=C/C(O)(CC)CC)CC[C@@H]23)C[C@@H](O)C[C@@H]1O [EB1089]	0.88	–
Cc1cc(C)c2c(c1)[C@@H](N(Cc1cc(C(F)(F)F)cc(C(F)(F)F)c1)c1nnn(C)n1)CCCN2C[C@H]1CC[C@H](C(=O)O)CC1 [Evacetrapib]	0.78	–
CCn1c(=O)c(-c2ccc(-c3cncs3)cc2Cl)cc2cnc(Nc3ccc(N4CCN(C)CC4)cc3)nc21 [FRAX597]	0.61	–
OCCn1cc(-c2ccc3c(c2)CC/C3=N\O)c(-c2ccncc2)n1 [GDC-0879]	0.55	–
CC(C)c1onc(-c2c(Cl)cccc2Cl)c1COc1ccc(/C=C/c2cccc(C(=O)O)c2)c(Cl)c1 [GW4064]	0.92	–
CCC1=C(C)CN(C(=O)NCCc2ccc(S(=O)(=O)NC(=O)N[C@H]3CC[C@H](C)CC3)cc2)C1=O [Glimepiride]	0.96	–
Cc1ccc2nc(NC(=O)CSc3nc4c(c(=O)n3-c3ccccc3)SCC4)sc2c1 [IWP-2]	0.64	–
Cn1cc(-c2ccc3nnc(C(F)(F)c4ccc5ncccc5c4)n3n2)cn1 [JNJ-38877605]	1.09	–

Molecule	UGT1A1 Fold Change (Log2) (UGT1A1)	ANGPTL3-LINEAR FOLD CHANGE (ANGPTL3)
O=C(O)c1ccccc1C(=O)Nc1ccc(-c2ccccc2)cc1 [Kartogenin]	2.24	–
CC(=O)c1cccc(-c2cccc(-c3ccn(CCN4CCOCC4)n3)c2)c1 [LRH-1 antagonist]	0.91	–
Cn1cc(-c2ccc(F)c(C(F)(F)F)c2)nc1C1CCN(c2ncnc3[nH]ncc23)CC1 [LY2584702]	0.76	–
Cc1ccc(C(=O)OCc2ccc([C@@H](CN)C(=O)Nc3ccc4cnccc4c3)cc2)c(C)c1 [Netarsudil]	0.85	–
COc1ccc2[nH]c([S+]([O-])Cc3ncc(C)c(OC)c3C)nc2c1 (stereo not shown) [Omeprazole]	1.09	–
COc1cc2c(cc1OC)-c1c(OC)c(OC)cc3ccnc(c13)C2=O [Oxoglaucine]	0.83	–
CNC(=O)c1ccccc1Nc1cc(Nc2ccc(N3CCOCC3)cc2OC)ncc1C(F)(F)F [PND-1186]	0.90	–
CC(C)(C(=O)NCC(F)(F)C(F)(F)F)C(=O)N[C@@H]1C(=O)Nc2ccccc2-c2ccccc21 [RO4929097]	1.06	–
CCCn1c(=O)c2[nH]c(C34CC5CC(CC3C5)C4)nc2n(CCC)c1=O [Rolofylline (KW-3902), Rolofylline]	0.66	–
CC(C)[C@H](O)C(=O)N[C@@H](C)C(=O)N[C@@H]1C(=O)N(C)CCc2ccccc21 [Semagacestat]	1.01	–
CCn1c(=O)c(-c2cc[nH]n2)cc2c(C)nc(N)nc21 [Voxtalisib (XL765, SAR245409), Voxtalisib]	–	0.4175
COCCn1c2c([n+](Cc3cnccn3)c1C)C(=O)c1ccccc1C2=O [YM155 (Sepantronium Bromide), Sepantronium Bromide]	–	0.3487
COc1cc(C(=O)NS(=O)(=O)c2ccccc2C)ccc1Cc1cn(C)c2ccc(NC(=O)OC3CCCC3)cc12 [Zafirlukast]	–	0.4506
BAM7	1.66	–
Pifithrin-a	1.44	–
meBIO	1.98	–
B1	0.59	–
B2	0.59	–

Source: patent US20210161997A1, “TREATING DISEASES VIA TARGETED MODULATION OF GENE SIGNALING NETWORKS” (Camp4 Therapeutics Corporation, priority 2018, published 2021)
